Assay results: US20170003277A1 (priority 2015, published 2017)

Assays:
[1] = test system: THP-1 human monocyte cell line; assay: Pathway enrichment (DAVID) in THP-1 study: Copaxone vs mannitol and Probioglat vs GA; type: cell-based; conditions: Copaxone vs mannitol, 6 hours
[2] = test system: mouse splenocytes; assay: Microarray gene expression of ex vivo activated splenocytes from GA-immunized mice (Copaxone, Natco, Escadra, Probioglat, Hangzhou, TV-5010); type: cell-based
From the text: After 3 days, the mice were sacrificed and cells from their spleens (splenocytes) were isolated because such cells are representative of, and commonly utilized as a gold standard to study the immune system.
Given the robustness of the model established in our first mouse splenocyte study, we sought to expand the scope of the investigation using the exact same study design, but with an expanded set of treatments (FIG. 1). In addition to comparing Copaxone® to a purported foreign generic version, we also sought to compare purported generics from various manufacturers to each other.
Extraction of total RNA from activated splenocytes was extracted using PerfectPure RNA Cultures CEKK kit 50 (5Prime GmbH, Hamburg, Germany) and following the manufacturer's instructions. RNA quality was assessed using the absorbance ratio at 260/280 nm and gel electrophoresis (Experion, Bio-Rad, Hercules, Calif., USA). Total RNA extracted from samples was hybridized to Illumina Mouse WG-6V2 microarray chips containing more than 45,200 transcripts.
Samples were randomized on the chips to avoid batch effects. Illumina's BeadStudio software was utilized for image processing, quantification of signal intensity per bead, and background signal correction. Multiple probes were analyzed for a given gene were averaged and batch correction was conducted using Partek. […]

[3] = cited from earlier work

## glatiramer acetate [Copaxone®]
[1]; top downregulated genes
  Fold Enrichment: GO: 0003006~reproductive developmental process: 6.25
  Fold Enrichment: GO: 0007275~multicellular organismal development: 2.168
  Fold Enrichment: GO: 0009653~anatomical structure morphogenesis: 2.643
  Fold Enrichment: GO: 0030154~cell differentiation: 2.556
  Fold Enrichment: GO: 0032502~developmental process: 1.984
  Fold Enrichment: GO: 0048513~organ development: 2.76
  Fold Enrichment: GO: 0048731~system development: 2.396
  Fold Enrichment: GO: 0048856~anatomical structure development: 2.165
  Fold Enrichment: GO: 0048869~cellular developmental process: 2.411
[1]; top upregulated genes
  Fold Enrichment: G0: 0001568~blood vessel development: 3.472
  Fold Enrichment: G0: 0002819~regulation of adaptive immune response: 7.067
  Fold Enrichment: G0: 0030154~cell differentiation: 1.794
  Fold Enrichment: GO: 0000267~cell fraction: 1.993
  Fold Enrichment: GO: 0001501~skeletal system development: 3.144
  Fold Enrichment: GO: 0001525~angiogenesis: 4.224
  Fold Enrichment: GO: 0001608~nucleotide receptor activity, G-protein coupled: 13.87
  Fold Enrichment: GO: 0001614~purinergic nucleotide receptor: 12.55
  Fold Enrichment: GO: 001816~cytokine production: 7.526
  Fold Enrichment: GO: 0001871~pattern binding: 5.244
  Fold Enrichment: GO: 0001944~vasculature development: 3.428
  Fold Enrichment: GO: 0002376~immune system process: 2.852
  Fold Enrichment: GO: 0002682~regulation of immune system process: 3.763
  Fold Enrichment: GO: 0002683~negative regulation of immune: 5.682
  Fold Enrichment: GO: 0002684~positive regulation of immune system process: 4.025
  Fold Enrichment: GO: 0002694~regulation of leukocyte activation: 4.14
  Fold Enrichment: GO: 0002697~regulation of immune effector process: 6.009
  Fold Enrichment: GO: 0002698~negative regulation of immune effector process: 15.05
  Fold Enrichment: GO: 0002698~positive regulation of response to external stimulus: 6.536
  Fold Enrichment: GO: 0002703~regulation of leukocyte mediated immunity: 7.43
  Fold Enrichment: GO: 0002822~regulation of adaptive immune response based on somatic recombination of immune receptors built from immunoglobulin superfamily domains: 7.244
  Fold Enrichment: GO: 0004222~metalloendopeptidase activity: 6.148
  Fold Enrichment: GO: 0004871~signal transducer activity: 2.537
  Fold Enrichment: GO: 0004872~receptor activity: 2.976
  Fold Enrichment: GO: 0004888~transmembrane receptor activity: 3.768
  Fold Enrichment: GO: 0004930~G-protein coupled receptor activity: 4.293
  Fold Enrichment: GO: 0005576~extracellular region: 2.824
  Fold Enrichment: GO: 0005578~proteinaceous extracellular matrix: 5.31
  Fold Enrichment: GO: 0005615~extracellular space: 3.371
  Fold Enrichment: GO: 0005624~membrane fraction: 2.128
  Fold Enrichment: GO: 0005626~insoluble friction: 2.12
  Fold Enrichment: GO: 0005886~plasma membrane: 2.42
  Fold Enrichment: GO: 0005887~integral to plasma membrane: 3.25
  Fold Enrichment: GO: 0006928~cell motion: 2.469
  Fold Enrichment: GO: 0006935~chemotaxis: 4.651
  Fold Enrichment: GO: 0006950~response to stress: 1.897
  Fold Enrichment: GO: 0006952~defense response: 3.418
  Fold Enrichment: GO: 0006954~inflammatory response: 4.475
  Fold Enrichment: GO: 0006955~immune response: 3.57
  Fold Enrichment: GO: 0007155~cell adhesion: 2.948
  Fold Enrichment: GO: 0007165~signal transduction: 1.567
  Fold Enrichment: GO: 0007166~cell surface receptor linked signal transduction: 2.246
  Fold Enrichment: GO: 0007186~G-protein coupled receptor protein signaling pathway: 2.726
  Fold Enrichment: GO: 0007275~multicellular organismal development: 1.742
  Fold Enrichment: GO: 0007610~behavior: 2.76
  Fold Enrichment: GO: 0007626~locomotory behavior: 4.081
  Fold Enrichment: GO: 0009605~response to external stimulus: 3.127
  Fold Enrichment: GO: 0009607~response to biotic stimulus: 3.376
  Fold Enrichment: GO: 0009611~response to wounding: 4.097
  Fold Enrichment: GO: 0009617~response to bacterium: 4.268
  Fold Enrichment: GO: 0009897~external side of plasma membrane: 6.497
  Fold Enrichment: GO: 0009986~cell surface: 4.067
  Fold Enrichment: GO: 0010033~response to organic substance: 2.03
  Fold Enrichment: GO: 0016020~membrane: 1.538
  Fold Enrichment: GO: 0016021~integral to membrane: 1.676
  Fold Enrichment: GO: 0016477~cell migration: 3.203
  Fold Enrichment: GO: 0016502~nucleotide receptor activity: 12.55
  Fold Enrichment: GO: 0019955~cytokine binding: 6.971
  Fold Enrichment: GO: 0022610~biological adhesion: 2.94
  Fold Enrichment: GO: 0030247~polysaccharide binding: 5.244
  Fold Enrichment: GO: 0030574~collagen cataboltc process: 20.7
  Fold Enrichment: GO: 0031012~extracellular matrix: 5.017
  Fold Enrichment: GO: 0031224~intrinsic to membrane: 1.684
  Fold Enrichment: GO: 0031226~intrinsic to plasma membrane: 3.268
  Fold Enrichment: GO: 0031347~regulation of defense response: 5.519
  Fold Enrichment: GO: 0031349~positive regulation of defense response: 6.758
  Fold Enrichment: GO: 0031960~response to corticosteroid stimulus: 6.623
  Fold Enrichment: GO: 0032101~regulation of response to external stimulus: 6.288
  Fold Enrichment: GO: 0032496~response to lipopolysaccharide: 5.682
  Fold Enrichment: GO: 0032502~developmental process: 1.643
  Fold Enrichment: GO: 0032879~regulation of localization: 2.359
  Fold Enrichment: GO: 0040011~locomotion: 3.21
  Fold Enrichment: GO: 0042221~response to chemical stimulus: 1.879
  Fold Enrichment: GO: 0042330~taxis: 4.651
  Fold Enrichment: GO: 0044243~multicellular organismal catabolic process: 20.7
  Fold Enrichment: GO: 0044421~extracellular region part: 3.61
  Fold Enrichment: GO: 0044425~membrane part: 1.539
  Fold Enrichment: GO: 0044459~plasma membrane part: 2.404
  Fold Enrichment: GO: 0045028~purinergic nudeotide receptor activity, G-protein coupled: 13.87
  Fold Enrichment: GO: 0045595~regulation of cell differentiation: 2.517
  Fold Enrichment: GO: 0046903~secretion: 3.164
  Fold Enrichment: GO: 0048513~organ development: 1.846
  Fold Enrichment: GO: 0048514~blood vessel morphogenesis: 3.398
  Fold Enrichment: GO: 0048518~positive regulation of biological process: 1.559
  Fold Enrichment: GO: 0048519~negative regulation of biological process: 1.629
  Fold Enrichment: GO: 0048545~response to steroid hormone stimulus: 4.216
  Fold Enrichment: GO: 0048583~regulation of response to stimulus: 3.613
  Fold Enrichment: GO: 0048584~positive regulation of response to stimulus: 3.79
  Fold Enrichment: GO: 0048731~system development: 1.918
  Fold Enrichment: GO: 0048856~anatomical structure development: 1.792
  Fold Enrichment: GO: 0048869~cellular developments process: 1.736
  Fold Enrichment: GO: 0048870~cell motility: 2.99
  Fold Enrichment: GO: 0050727~regulation of inflammatory response: 8.87
  Fold Enrichment: GO: 0050729~positive regulation of inflammatory response: 11.5
  Fold Enrichment: GO: 0050776~regulation of immune response: 4.293
  Fold Enrichment: GO: 0050793~regulation of developmental process: 3.161
  Fold Enrichment: GO: 0050864~regulation of B cell activation: 8.565
  Fold Enrichment: GO: 0050865~regulation of cell activation: 4.296
  Fold Enrichment: GO: 0050867~positive regulation of cell activation: 4.664
  Fold Enrichment: GO: 0050896~response to stimulus: 1.852
  Fold Enrichment: GO: 0051239~regulation of multicellular organismal process: 2.792
  Fold Enrichment: GO: 0051241~negative regulation of multicellular organismal: 4.902
  Fold Enrichment: GO: 0051270~regulation of cell motion: 3.643
  Fold Enrichment: GO: 0051384~response to glucocorticoid stimulus: 7.046
  Fold Enrichment: GO: 0051674~localization of cell: 2.99
  Fold Enrichment: GO: 0051704~multi-organism process: 2.223
  Fold Enrichment: GO: 0051707~response to other organism: 4.426
  Fold Enrichment: GO: 0060089~molecular transducer activity: 2.537
  Fold Enrichment: GO: 0065007~biological regulation: 1.236
  Fold Enrichment: GO: 0065008~regulation of biological quality: 2.067
  Fold Enrichment: GO: 0080134~regulation of response to stress: 3.7
  Fold Enrichment: GO: 00322501~multicellular organismal process: 1.77
  Fold Enrichment: GO: 00550878~regulation of body fluid levels: 4.87
  Fold Enrichment: hsa04060:Cytokine-cytokine receptor interaction: 3.911
[2]; first mouse splenocyte study, adjusted p=0.043 by ANOVA
  IL1B expression, Copaxone compared with Natco purported generic: significantly lower IL1B expression
[2]; mouse splenocytes
  IL1B expression relative to medium: extremely effective in downregulating IL1B
[3]; GATE study arm
  Adverse events leading to discontinuation: 5
[3]; GATE study, Copaxone arm (357) vs Placebo (84)
  Effect on annualized relapse rate (ARR): no effect in reducing ARR
